# Laboratory results from patent US12208227B2, “Precision bio-chemotronic system” (THE REGENTS OF THE UNIVERSITY OF MICHIGAN, priority 2017, dated 2025).
# Tests used:
# [1] = Dissolution of printed films versus original loose powders; type: physicochemical
# Text: (§2) Drug dissolution was monitored by in-situ UV-VIS Ocean Optics USB+2000 spectrometer with T300-UV-VIS transmission dip probe, with a 10 mm optical path.
# (§3) For dissolution from film, the glass substrate with printed film was attached to rotating rod with substrate holder. In case of compressed powder pellet, 1.57 mm diameter pellet was compressed at 50±2 psi for approximately 10 seconds into a holder having same size as disk substrate holder. […] In all cases the same vessel and solution volume of 10 ml was used. Testing temperature was room temperature−20±1° C. Sink conditions were defined as C<5Cs.
# As-received API powders having the same weight as the films were introduced into 10 ml solutions without any prior treatment, and stirred using a rotation rod with the same shape and diameter as the one used for film dissolution.
# [2] = tested on: OVCAR3 cells (ovarian carcinoma); assay: Cancer cell growth/viability, live cell counts by trypan blue exclusion; type: cell-based
# Procedure: (§1) The cells were plated onto 12-well tissue culture dishes, and allowed to adhere and grow for 24 hours in 2.5 ml of 10% fetal bovine serum-supplemented growth medium. […] Slides were removed following this initial period, and live cell counts were determined using trypan blue exclusion using a hemocytometer at 1, 4, 8, 12, 24 and 48 hours following film treatment. At least 3 samples were tested at each time point.
# [3] = tested on: MCF7 cells (breast carcinoma); assay: as above; type: cell-based
# Procedure: as §1
# [4] = Intrinsic dissolution rate, rotating disk dissolution apparatus; type: physicochemical; conditions: films comparable to compressed pellets, 100 rpm, 10 ml, 20±1° C.
# Text: as §2
# Dissolution Rate Measurement
# as §3
# To measure dissolution kinetics, a rotating disk dissolution apparatus (see FIG. 30 for details) was used with rotational speed of 100 rpm. Concentration was monitored using a UV-VIS spectrometer equipped with a dip probe. The compounds were tested both in powder form (compressed into pellets for rotating disk dissolution) and in film form. […]
# [formula] where m is the dissolved solute mass, and (dm/dt)max is the maximum slope in the dissolution curve that plots the amount of dissolved material versus time, typically evaluated at the start of dissolution process, where the concentration driving force is highest. […]
# physchem = conditions: 20 °C, pH 1.2, simulated gastric fluid, thermodynamic from solid
# Procedure: Solubility tests were performed at ambient temperature (20±1° C.). Solutions with excess concentration (at least 100 μg/ml of solid) were shaken at approximately 1,000 rpm for 48 hours, followed by solution filtration with 0.4 μm filter after 24 hrs. Filtered solutions concentrations were then measured using UV-VIS spectrometry, calibrated with known solutions concentrations. Five different concentrations for calibration were used in each test.
# Solution volume remained constant in all experiments, 10 ml, and temperature was 20±1° C.
# [5] = film form, nominal 5 μM (4.5 μg per film)
# [6] = powder form in growth medium, nominal 5 μM
structure (smiles),measurement,setting,value
Cn1c(=O)c2c(ncn2C)n(C)c1=O [Caffeine],dissolution in the film form (qualitative),[1]; film form,instantaneous dissolution
CC/C(=C(\c1ccccc1)c1ccc(OCCN(C)C)cc1)c1ccccc1 [tamoxifen],cancer cells' viability after 48 hours,[2]; [5],44%
same,cancer cells' viability after 48 hours,[2]; [6],68%
same,cancer cells' viability after 48 hours,[3]; [5],58%
same,cancer cells' viability after 48 hours,[3]; [6],79%
same,intrinsic dissolution rate (IDR),[4]; aqueous acetate buffer pH 4.9,6.10^−4±1·10^−4 μg sec^−1 mm^−2
CC(C)Cc1ccc(C(C)C(=O)O)cc1 (stereo not drawn) [ibuprofen],"enhancement of initial dissolution rate, film-form versus loose powder","[1]; aqueous HCl buffer pH 1.2, 70 μg weight, 10 ml",thirty-fold
same,solubility at 48 h,physchem,22.5 ± 0.5 µg/mL
same,intrinsic dissolution rate (IDR),[4]; aqueous HCl buffer pH 1.2,1·10^−3±3·10^−4 μg sec^−1 mm^−2
